Laboratory results taken from publication PMC6271697, “Anticancer Activities of Polyynes from the Root Bark of Oplopanax horridus and Their Acetylated Derivatives” (Molecules, 2014).
Where “and” joins values, the source holds several entries; their conditions need not be identical. Equal values may be shown once. Read-outs that look alike come from different tables or passages of the source.

Legend:
Type in all cases: cell-based, human
MCF-7 cells = assay: MTT cell viability assay, MCF-7 cells; details: for IC50: read-out: IC50 MCF-7; for antiproliferative effect on MCF-7 cells (in words): concentrations 1–300 µM
Experimental: (§1) The human breast cancer cell lines MCF-7, MDA-MB-231, human hepatocellular liver cell line HepG2 and human lung carcinoma epithelial cells A549 were purchased from American Type Culture Collection (ATCC, Manassas, VA, USA). Normal human hepatic LO2 cells were obtained from the Institute of Cell Biology, Academic Sinica (Shanghai, China). The cells were grown in an atmosphere of 5% CO2 at 37 °C in RPMI 1640 medium supplemented with 10% fetal bovine serum, 100 U/mL penicillin and […] streptomycin.
(§2) The viability of cells was measured by a colorimetric MTT assay. Briefly, 1 × 10^4 cells/well in 96-well microplates were exposed to different concentration of polyynes and their acetylated derivatives respectively for 24 h incubation, following addition of 20 μL MTT solution (4 mg/mL) to each well for another 4 h incubation at 37 °C. Finally, the medium was removed and replaced with 100 μL dimethyl sulfoxide which was added to dissolve the dye crystal presented in cells. The absorbance was recorded at 570 nm using a microplate reader (1420 Multilabel counter victor^3, Perkin-Elmer, Waltham, MA, USA). The results were expressed as ratio of absorbance between treatments and control cells (solvent vehicle set at 100%). Four replicate wells were tested per assay which was repeated three times.

A549 cells = assay: MTT cell viability assay, A549 cells; details: for IC50: read-out: IC50 A549; for antiproliferative effect on A549 cells (in words): concentrations 1–300 µM
Experimental: as §1, §2

LO2 cells = assay: MTT cell viability assay, normal hepatic LO2 cells; details: read-out: IC50 LO2
Experimental: as §1, §2

HepG2 cells = assay: MTT cell viability assay, HepG2 cells; details: for IC50: read-out: IC50 HepG2; for antiproliferative effect on HepG2 cells (in words): concentrations 1–300 µM
Experimental: as §1, §2

MDA-MB-231 cells [1] = assay: MTT cell viability assay, MDA-MB-231 cells; details: for IC50: read-out: IC50 MDA-MB-231
Experimental: as §1, §2

MDA-MB-231 cells [2] = assay: Cell cycle analysis by PI staining and flow cytometry; details: 24 h; for G2/M arrest rate at low concentration: OHR-1 7.5 μM, OHR-2 2.5 μM, OHR-3 5 μM, OHR-5 7.5 μM; for G2/M arrest rate at high concentration: OHR-1 15 μM, OHR-2 5 μM, OHR-3 10 μM, OHR-5 15 μM
Experimental: Cells were seeded in 6-well tissue culture plates and treated with DMSO control or different concentration of OHR-1, -2, -3 and -5 for 24 h. Then, the cells were harvested and fixed gently with cold 70% ethanol at −20 °C overnight. Finally, the cells were washed with PBS and re-suspended in 300 μL of propidium iodide (PI) stain solution (20 μg/mL PI and 8 μg/mL DNase-free RNase) for 20 min at room temperature in the dark. The cells were analyzed with a flow cytometry and Mod Fit LT 3.0 software (Variety Software House, Topsham, ME, USA). For each measurement, at least 20,000 cells were counted.

MDA-MB-231 cells [3] = assay: JC-1 mitochondrial membrane potential; details: high concentration (OHR-1 15 μM, OHR-2 5 μM, OHR-3 10 μM, OHR-5 15 μM), 24 h
Experimental: The MDA-MB-231 cells were treated with OHR-1, -2, -3 and -5 for 24 h in a humidified atmosphere (37 °C with 5% CO2). The cells were collected and responded in 0.5 mL culture medium with JC-1 dye (1 μg/mL) for 20 min at 37 °C in dark. Fluorescence was monitored by both flow cytometry (BD Biosciences, San Jose, CA, USA) and fluorescence microscope. The Δψm were indicated by the rato of […] fluorescence intensity. The data were expressed as ratio of Δψm between treatments and control cells (solvent vehicle set at 100%).

MDA-MB-231 cells [4] = assay: Hoechst 33342 staining for apoptosis; details: OHR-1 15 μM, OHR-2 5 μM, OHR-3 10 μM, OHR-5 15 μM; 12 h
Experimental: MDA-MB-231 cells were seeded in the flat-bottomed 6-well plates and treated with OHR-1, -2, -3 and -5. Cells treated with solvent vehicle served as controls. In 12 h after treatment, cells were fixed in 4% polyoxymethylene solution for 30 min and then washed with PBS. The fixed cells were incubated with Hoechst 33342 for 15 min at room temperature in the dark and then washed with PBS twice, which were finally observed under a fluorescence microscope (Convert Fluorescence Microsope Axiovert 200, HAL 100, HBO 100, Carl Zeiss MicroImaging Co., Ltd., Oberkochen, Germany) at a magnification of ×400.

[5] = Homo sapiens, MCF7, MTT, 24 h incubation
[6] = Homo sapiens, A549, MTT, 24 h incubation
[7] = L02, normal human hepatic cells, MTT, 24 h incubation
[8] = Homo sapiens, HepG2, MTT, 24 h incubation
[9] = Homo sapiens, MDA-MB-231, MTT, 24 h incubation
[10] = normal human hepatic cells, MTT, 24 h incubation

Compound | IC50 (MCF-7 cells; [5]) | IC50 (A549 cells; [6]) | IC50 (LO2 cells; [7]) | IC50 (HepG2 cells; [8]) | IC50 (MDA-MB-231 cells [1]; [9]) | IC50 (MCF-7 cells; MTT, 24 h incubation) | IC50 (A549 cells; MTT, 24 h incubation) | IC50 (LO2 cells; [10]) | IC50 (HepG2 cells; MTT, 24 h incubation) | IC50 (MDA-MB-231 cells [1]; MTT, 24 h incubation) | other results
C=C[C@H](O)C#CC#C[C@@H](O)/C=C\CCCCCCC [OH-1, (3S,8S,Z)-Heptadeca-1,9-dien-4,6-diyne-3,8-diol] |  |  |  |  |  |  |  |  |  |  | IC50 (MCF-7 cells; Homo sapiens, MCF7, 24 h): 15.3 ± 0.3 µM; IC50 (A549 cells; Homo sapiens, A549, 24 h): 23.5 ± 4.1 µM; inhibition at 60 µM (A549 cells; Homo sapiens, A549, read-out: A549 cell growth inhibited): 95.6%; IC50 (LO2 cells; Homo sapiens, L02, 24 h): 8.7 ± 0.5 µM; IC50 (HepG2 cells; Homo sapiens, HepG2, 24 h): 7.7 ± 1.3 µM; IC50 (MDA-MB-231 cells [1]; Homo sapiens, MDA-MB-231, 24 h): 4.7 ± 1.4 µM
CCCCCCC/C=C\[C@H](O)C#CC#C[C@@H](O)CC [OH-2, (3S,8S,Z)-Heptadeca-9-en-4,6-diyne-3,8-diol] | 27.5 ± 2.2 µM | 44.1 ± 9.4 µM | 30.2 ± 4.8 µM | 38.4 ± 7.5 µM | 14.7 ± 2.7 µM |  |  |  |  |  | 
C=C[C@H](O)C#CC#C[C@@H](O)/C=C\CCCCCCCCOC(C)=O [OH-3, (11S,16S,Z)-11,16-Dihydroxyoctadeca-9,17-dien-12,14-diynyl acetate] | 93.6 ± 6.1 µM | 98 ± 6.3 µM | 90.3 ± 6.4 µM | 47.2 ± 5.9 µM | 16.5 ± 2.2 µM |  |  |  |  |  | 
CC[C@H](O)C#CC#C[C@@H](O)/C=C\CCCCCCCCOC(C)=O [OH-4, (11S,16S,Z)-11,16-Dihydroxyoctadeca-9-en-12,14-diynyl acetate] | 100 ± 7 µM | 109.9 ± 0.8 µM | 91.9 ± 13.4 µM | 69.1 ± 1.8 µM | 87.8 ± 7.9 µM |  |  |  |  |  | 
C=C[C@H](O)C#CC#C[C@@H](O)/C=C\CCCCCCCCO [OH-5, (11S,16S,Z)-Octadeca-9,17-dien-12,14-diyne-1,11,16-triol] | 94.4 ± 7.3 µM | 150 to 300 µM | 91 ± 9.5 µM | 48.3 ± 5.9 µM | 49 ± 10.9 µM |  |  |  |  |  | 
CC[C@H](O)C#CC#C[C@@H](O)/C=C\CCCCCCCCO [OH-6, (11S,16S,Z)-Octadeca-9-en-12,14-diyne-1,11,16-triol] | 106 ± 13.2 µM | 85.7 ± 13.2 µM | 90.8 ± 4 µM | 45.3 ± 6.3 µM | 55.7 ± 11.8 µM |  |  |  |  |  | 
C=C[C@@H](C#CC#C[C@@H](O)/C=C\CCCCCCCCOC(C)=O)OC(C)=O [OHR-9] | 81.3 ± 1 µM | 83.1 ± 8.4 µM | 86.2 ± 11.3 µM | 59.9 ± 3 µM | 52 ± 7.5 µM |  |  |  |  |  | 
CC[C@H](O)C#CC#C[C@H](/C=C\CCCCCCCCOC(C)=O)OC(C)=O [OHR-12, (11S,16S,Z)-16-Hydroxyoctadeca-9-en-12,14-diyne-1,11-diyl diacetate] | 90.7 ± 0.3 µM | 100 to 300 µM | 100 to 300 µM | 100 to 300 µM | 77.7 ± 1.9 µM |  |  |  |  |  | 
(3S,8S,Z)-3,18-Dihydroxyoctadeca-1,9-dien-4,6-diyn-8-yl acetate [OHR-15] |  |  |  |  |  | > 300 µM | > 300 µM | > 300 µM | > 300 µM | 100 to 300 µM | antiproliferative effect on MCF-7 cells (in words) (MCF-7 cells): no cytotoxicity; antiproliferative effect on A549 cells (in words) (A549 cells): no cytotoxicity; antiproliferative effect on HepG2 cells (in words) (HepG2 cells): no cytotoxicity
(3S,8S,Z)-3-Hydroxyheptadeca-1,9-dien-4,6-diyn-8-yl acetate [OHR-5] |  |  |  |  |  | 30.6 ± 3.1 µM | 30.1 ± 4.4 µM | 31.1 ± 1.8 µM | 43.7 ± 6.6 µM | 13.9 ± 5.8 µM | G2/M arrest rate at low concentration (MDA-MB-231 cells [2]): 33.2% ± 4.6%; G2/M arrest rate at high concentration (MDA-MB-231 cells [2]): 38.0% ± 1.7%; effect on mitochondrial membrane potential Δψm (JC-1) (MDA-MB-231 cells [3]): decreasing the Δψm; induction of apoptosis (Hoechst staining) (MDA-MB-231 cells [4]): induce obvious apoptosis
(3S,8S,Z)-3-Hydroxyheptadeca-9-en-4,6-diyn-8-yl acetate [OHR-3] |  |  |  |  |  | 25.8 ± 5.8 µM | 30.1 µM and 31.4 µM | 31.5 ± 4 µM | 31.5 ± 2.1 µM | 6.6 ± 0.8 µM | G2/M arrest rate at low concentration (MDA-MB-231 cells [2]): 24.2% ± 2.9%; G2/M arrest rate at high concentration (MDA-MB-231 cells [2]): 25.6% ± 7.5%; effect on mitochondrial membrane potential Δψm (JC-1) (MDA-MB-231 cells [3]): decreasing the Δψm; A549 cell growth inhibited (A549 cells; at 60 µM, p < 0.01): 90.8%; induction of apoptosis (Hoechst staining) (MDA-MB-231 cells [4]): induce obvious apoptosis
(3S,8S,Z)-8-Hydroxyheptadeca-1,9-dien-4,6-diyn-3-yl acetate [OHR-6] |  |  |  |  |  |  |  | 46.1 ± 11.7 µM | 38.5 ± 6.2 µM | 36.2 ± 13.4 µM | 
(3S,8S,Z)-8-Hydroxyheptadeca-9-en-4,6-diyn-3-yl acetate [OHR-4] |  |  |  |  |  | 28 ± 2.9 µM | 31.4 µM and 33.3 µM | 34.3 ± 1.5 µM | 59.5 ± 3.1 µM | 23.4 ± 3.2 µM | 
(3S,8S,Z)-18-Hydroxyoctadeca-1,9-dien-4,6-diyne-3,8-diyl diacetate [OHR-14] |  |  |  |  |  | > 300 µM | > 300 µM | > 300 µM | 150 to 300 µM | 156 ± 35.5 µM | antiproliferative effect on MCF-7 cells (in words) (MCF-7 cells): no cytotoxicity; antiproliferative effect on A549 cells (in words) (A549 cells): no cytotoxicity; antiproliferative effect on HepG2 cells (in words) (HepG2 cells): no cytotoxicity; concentration showing some antiproliferative effects on MDA-MB-231 cells (MDA-MB-231 cells [1]): about 150 µM
(3S,8S,Z)-18-Hydroxyoctadeca-9-en-4,6-diyne-3,8-diyl diacetate [OHR-13] |  |  |  |  |  | > 300 µM | > 300 µM | > 300 µM | > 300 µM | 137 ± 28.4 µM | antiproliferative effect on MCF-7 cells (in words) (MCF-7 cells): no cytotoxicity; antiproliferative effect on A549 cells (in words) (A549 cells): no cytotoxicity; antiproliferative effect on HepG2 cells (in words) (HepG2 cells): no cytotoxicity; concentration showing some antiproliferative effects on MDA-MB-231 cells (MDA-MB-231 cells [1]): about 150 µM
(3S,8S,Z)-Heptadeca-1,9-dien-4,6-diyne-3,8-diyl diacetate [OHR-2] |  |  |  |  |  | 36.9 ± 4.8 µM | 24.7 ± 5.6 µM | 32.1 ± 9 µM | 6.6 ± 1.5 µM | 4.8 ± 0.5 µM | G2/M arrest rate at low concentration (MDA-MB-231 cells [2]): 22.6% ± 2.6%; G2/M arrest rate at high concentration (MDA-MB-231 cells [2]): 30.4% ± 3.1%; effect on mitochondrial membrane potential Δψm (JC-1) (MDA-MB-231 cells [3]): decreasing the Δψm; induction of apoptosis (Hoechst staining) (MDA-MB-231 cells [4]): induce obvious apoptosis
(11S,16S,Z)-11-Hydroxyoctadeca-9-en-12,14-diyne-1,16-diyl diacetate [OHR-11] |  |  |  |  |  | 78.1 ± 3.4 µM | 98.2 ± 17.5 µM | 93.1 ± 14 µM | 77 ± 9.5 µM | 51.5 ± 8.4 µM | 
(11S,16S,Z)-16-Hydroxyoctadeca-9,17-dien-12,14-diyne-1,11-diyl diacetate [OHR-10] |  |  |  |  |  | 94.3 ± 6.1 µM | 101 ± 7.3 µM | 100 to 300 µM | 78.4 ± 6.5 µM | 56.7 ± 6.9 µM | 
(11S,16S,Z)-Octadeca-9,17-dien-12,14-diyne-1,11,16-triyl triacetate [OHR-8] |  |  |  |  |  | > 300 µM | > 300 µM | > 300 µM | 100 to 300 µM | 19.6 ± 6.9 µM | 
(11S,16S,Z)-Octadeca-9-en-12,14-diyne-1,11,16-triyl triacetate [OHR-7] |  |  |  |  |  | > 300 µM | > 300 µM | > 300 µM | > 300 µM | > 300 µM | 
